Source: ChEMBL document CHEMBL4371067, “Discovery of N-substituted 7-azaindoles as Pan-PIM kinases inhibitors - Lead optimization - Part III” (Bioorg Med Chem Lett, 2019)
Converted amounts (≈) assume the structure as drawn.

Assays:
[1] = biological target: Ribosomal protein S6 kinase alpha-2 (Homo sapiens) (UniProt Q15349); assay: Inhibition of RSK3 (unknown origin) at 0.1 uM relative to control
[2] = AUC (0 to infinity) in rat at 10 mg/kg, po administered as single dose; type: ADME, organism-based; parameters: dose 10 mg/kg, route oral, time infinity; settings: in vivo
[3] = Thermodynamic solubility in pH 7.4 solution; type: physicochemical; settings: buffer, read-out: Therm_solubility
[4] = biological target: Cyclin-dependent kinase 5 (Homo sapiens) (UniProt Q00535); assay: Inhibition of CDK5 (unknown origin) at 0.1 uM relative to control
[5] = Cmax in nude mouse xenografted with human KG1 cells at 12.5 mg/kg, po bid for 18 days measured at 8 hrs post last dose; type: ADME, organism-based; parameters: dose 12.5 mg/kg, route oral; settings: in vivo
KG-1 [6] = assay: Antitumor activity against human KG1 cells xenografted in nude mouse assessed as tumor growth at 12.5 mg/kg, po bid for 18 days relative to control; type: functional
[7] = biological target: Cyclin-dependent kinase 2 (Homo sapiens) (UniProt P24941); assay: Inhibition of CDK2 (unknown origin) at 0.1 uM relative to control
[8] = Drug uptake in tumor of mouse xenografted with human KG1 cells at 25 mg/kg, po administered as single dose and measured at 24 hrs post dose; type: ADME, organism-based, Neoplasm; settings: read-out: Drug uptake
[9] = biological target: Ribosomal protein S6 kinase alpha-2 (Homo sapiens) (UniProt Q15349); assay: Inhibition of RSK3 (unknown origin) at 1 uM relative to control
[10] = Clearance in mouse liver microsomes assessed as drug extraction at 5 uM; type: ADME, Microsome; settings: liver microsomes, read-out: CLH
[11] = Cmax in nude mouse xenografted with human KG1 cells at 50 mg/kg, po bid for 18 days measured at 8 hrs post last dose; type: ADME, organism-based; parameters: dose 50 mg/kg, route oral; settings: in vivo
[12] = biological target: Glycogen synthase kinase-3 beta (Homo sapiens) (UniProt P49841); assay: Inhibition of GSK3beta (unknown origin) at 1 uM relative to control
[13] = biological target: Glycogen synthase kinase-3 alpha (Homo sapiens) (UniProt P49840); assay: Inhibition of GSK3alpha (unknown origin) at 0.1 uM relative to control
KG-1 [14] = assay: Antiproliferative activity against human KG1 cells; type: functional, cell-based; settings: Homo sapiens, KG-1
[15] = biological target: T1, Dual specificity tyrosine-phosphorylation-regulated kinase 3 (Homo sapiens) (UniProt O43781); assay: Inhibition of DYRK3 (unknown origin) at 0.1 uM relative to control
T1 sequence (whole entry): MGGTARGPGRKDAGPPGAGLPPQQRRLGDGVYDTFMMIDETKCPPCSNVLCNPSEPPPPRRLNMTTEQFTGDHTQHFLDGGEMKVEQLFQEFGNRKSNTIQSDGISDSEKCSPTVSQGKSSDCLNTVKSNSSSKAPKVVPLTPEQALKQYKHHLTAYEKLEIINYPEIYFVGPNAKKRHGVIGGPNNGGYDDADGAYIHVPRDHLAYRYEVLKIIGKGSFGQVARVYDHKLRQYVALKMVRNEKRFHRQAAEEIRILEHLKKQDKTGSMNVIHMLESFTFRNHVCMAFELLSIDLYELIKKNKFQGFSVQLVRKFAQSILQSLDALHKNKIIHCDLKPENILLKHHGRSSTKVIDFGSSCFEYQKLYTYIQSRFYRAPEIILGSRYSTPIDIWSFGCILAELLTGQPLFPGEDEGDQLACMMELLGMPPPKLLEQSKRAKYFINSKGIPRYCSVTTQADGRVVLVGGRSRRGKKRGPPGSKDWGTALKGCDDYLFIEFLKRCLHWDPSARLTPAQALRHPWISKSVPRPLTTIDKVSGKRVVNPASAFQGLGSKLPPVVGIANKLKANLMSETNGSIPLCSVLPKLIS

[16] = biological target: Glycogen synthase kinase-3 beta (Homo sapiens) (UniProt P49841); assay: Inhibition of GSK3beta (unknown origin) at 0.1 uM relative to control
[17] = biological target: Cyclin-dependent kinase 5 (Homo sapiens) (UniProt Q00535); assay: Inhibition of CDK5 (unknown origin) at 1 uM relative to control
[18] = biological target: T1, Dual specificity tyrosine-phosphorylation-regulated kinase 3 (Homo sapiens); assay: Inhibition of DYRK3 (unknown origin) at 1 uM relative to control
[19] = biological target: Cyclin-dependent kinase 3 (Homo sapiens) (UniProt Q00526); assay: Inhibition of CDK3 (unknown origin) at 0.1 uM relative to control
[20] = Permeability in human Caco2/TC7 cells at 5 uM; type: ADME, cell-based; settings: Caco-2, read-out: permeability
[21] = Drug uptake in tumor of mouse xenografted with human KG1 cells at 25 mg/kg, po administered as single dose and measured at 8 hrs post dose; type: ADME, organism-based, Neoplasm; settings: read-out: Drug uptake
[22] = Half life in rat at 3 mg/kg, iv administered as single dose; type: ADME, organism-based; settings: in vivo
[23] = biological target: Cyclin-dependent kinase 1 (Homo sapiens) (UniProt P06493); assay: Inhibition of CDK1 (unknown origin) at 0.1 uM relative to control
[24] = biological target: Serine/threonine-protein kinase pim-1 (Homo sapiens, UniProt P11309); assay: Inhibition of PIM1 (unknown origin) assessed as reduction in BAD phosphorylation at Ser-112 residue by TR-FRET assay
[25] = biological target: Cyclin-dependent kinase 2 (Homo sapiens) (UniProt P24941); assay: Inhibition of CDK2 (unknown origin) at 1 uM relative to control
[26] = Cmax in nude mouse xenografted with human KG1 cells at 25 mg/kg, po bid for 18 days measured at 8 hrs post last dose; type: ADME, organism-based; parameters: dose 25 mg/kg, route oral; settings: in vivo
KG-1 [27] = assay: Antitumor activity against human KG1 cells xenografted in nude mouse assessed as tumor growth at 50 mg/kg, po bid for 18 days relative to control; type: functional
Mus musculus [28] = assay: In vivo inhibition of PIM in mouse xenografted with human KG1 cells assessed as reduction in phosphorylated BAD level at 25 mg/kg, po administered as single dose and measured at 8 hrs post dose relative to control; type: functional; settings: KG-1, po
[29] = biological target: Serine/threonine-protein kinase PIM (Homo sapiens, UniProt P11309+Q9P1W9+Q86V86); assay: Inhibition of PIM in human KG1 cells assessed as reduction in pS6 level; type: cell-based
[30] = biological target: Voltage-gated inwardly rectifying potassium channel KCNH2 (Homo sapiens, UniProt Q12809); assay: Inhibition of human ERG
[31] = AUC (0 to infinity) in rat at 3 mg/kg, iv administered as single dose; type: ADME, organism-based; parameters: dose 3 mg/kg, route intravenous, time infinity; settings: in vivo
[32] = Volume of distribution at steady state in rat at 3 mg/kg, iv administered as single dose; type: ADME, organism-based; settings: in vivo, read-out: Vdss
[33] = Half life in rat at 10 mg/kg, po administered as single dose; type: ADME, organism-based; settings: in vivo
[34] = Clearance in rat at 3 mg/kg, iv administered as single dose; type: ADME, organism-based; settings: in vivo
[35] = biological target: Cyclin-dependent kinase 3 (Homo sapiens) (UniProt Q00526); assay: Inhibition of CDK3 (unknown origin) at 1 uM relative to control
KG-1 [36] = assay: Antitumor activity against human KG1 cells xenografted in nude mouse assessed as tumor growth at 25 mg/kg, po bid for 18 days relative to control; type: functional
Mus musculus [37] = assay: In vivo inhibition of PIM in mouse xenografted with human KG1 cells assessed as reduction in phosphorylated BAD level at 25 mg/kg, po administered as single dose and measured up to 24 hrs post dose relative to control; type: functional; settings: KG-1, po
[38] = biological target: Serine/threonine-protein kinase pim-2 (Homo sapiens, UniProt Q9P1W9); assay: Inhibition of PIM2 (unknown origin) assessed as reduction in BAD phosphorylation at Ser-112 residue by TR-FRET assay
[39] = Protein binding in mouse plasma; type: ADME, cell-free; settings: read-out: PPB (converted)
[40] = Cmax in rat at 10 mg/kg, po administered as single dose; type: ADME, organism-based; parameters: dose 10 mg/kg, route oral; settings: in vivo
[41] = Plasma concentration in mouse xenografted with human KG1 cells at 25 mg/kg, po administered as single dose and measured at 24 hrs post dose; type: ADME, organism-based
[42] = Plasma concentration in mouse xenografted with human KG1 cells at 25 mg/kg, po administered as single dose and measured at 8 hrs post dose; type: ADME, organism-based
[43] = Oral bioavailability in rat at 10 mg/kg administered as single dose; type: ADME, organism-based; settings: in vivo
[44] = biological target: Cyclin-dependent kinase 1 (Homo sapiens) (UniProt P06493); assay: Inhibition of CDK1 (unknown origin) at 1 uM relative to control
[45] = Clearance in human liver microsomes assessed as drug extraction at 5 uM; type: ADME, Microsome; settings: liver microsomes, read-out: CLH
[46] = biological target: Glycogen synthase kinase-3 alpha (Homo sapiens) (UniProt P49840); assay: Inhibition of GSK3alpha (unknown origin) at 1 uM relative to control
[47] = Toxicity in nude mouse xenografted with human KG1 cells assessed as body weight loss at 12.5 to 50 mg/kg, po bid for 18 days relative to control; type: organism-based; settings: in vivo, 432 h

COCCC#Cc1c(Cl)c2c(Cl)cc(C(N)=O)nc2n1[C@H]1CCCNC1
inhibition [1]: 20% | AUC(0-inf) [2]: 643 ng·h/mL | solubility thermodynamic [3]: 86 µM (≈ 34 µg/mL) | inhibition [4]: 88% | Cmax [5]: 140 nM | T/C (KG-1 [6]): 60% | inhibition [7]: 26% | concentration at 24 h [8]: 7900 nM | inhibition [9]: 54% | hepatic extraction ratio at 5 µM [10]: 0.5 | Cmax [11]: 520 nM | inhibition [12]: 90% | inhibition [13]: 23% | EC50 (KG-1 [14]): 39 nM | inhibition [15]: 15% | inhibition [16]: 48% | inhibition [17]: 89% | inhibition [18]: 68% | inhibition [19]: 24% | Papp at 5 µM [20]: 4.1 ×10⁻⁶ cm/s | concentration at 8 h [21]: 24000 nM | half-life [22]: 2.75 h | inhibition [23]: 14% | IC50 [24]: 0.8 nM | Ki [24]: 0.4 nM | inhibition [25]: 71% | Cmax [26]: 320 nM | T/C (KG-1 [27]): 33% | inhibition in vivo at 25 mg/kg (Mus musculus [28]): ≤ 64% | EC50 [29]: 27 nM | IC50 [30]: 3000 nM | AUC(0-inf) [31]: 405 ng·h/mL | Vd [32]: 18.6 L/kg | half-life [33]: 3.59 h | clearance [34]: 113 mL/min/kg | inhibition [35]: 73% | T/C (KG-1 [36]): 56% | inhibition in vivo at 25 mg/kg (Mus musculus [37]): 56% | IC50 [38]: 5.1 nM | fraction unbound [39]: 0.02 | Cmax [40]: 92 ng/mL | concentration at 24 h [41]: 60 nM | concentration at 8 h [42]: 920 nM | bioavailability [43]: 46% | inhibition [44]: 51% | hepatic extraction ratio at 5 µM [45]: 0.23 | inhibition [46]: 81% | Activity [47]: < 10%
